Laboratory results: paper PMC10298982, “Stability Characterization of the Novel Anti-Cancer HM-10/10 HDL-Mimetic Peptide” (International Journal of Molecular Sciences, 2023)
Ends that are not written are not given here.

How the values were obtained:
[1] = Metabolic stability in Sprague-Dawley rat liver microsomes; assay type: in vitro ADME; conditions: for CLint scaled: rat, microsomes, Sprague-Dawley rat liver microsomes 0.5 mg protein/mL, 2 μM
[2] = Metabolic stability in beagle dog liver microsomes; assay type: in vitro ADME; conditions: for CLint scaled: dog, microsomes, Beagle dog liver microsomes 0.5 mg protein/mL, 2 μM
[3] = Metabolic stability in human liver microsomes; assay type: in vitro ADME
CYP2B6 = CYP2B6 induction (enzyme activity) in single-donor human hepatocytes; conditions: for Fold Increase (Enzyme Activity) Mean: mean of three lots
Protocol: The transport medium was replaced with 200 μL of warm (37 °C) incubation medium (InVitroGRO HI, BioIVT Catalog No. Z99009) and the plate was placed in a humidified 5% carbon dioxide incubator at 37 °C for 24 h.
In addition, test article vehicle (PBS) was added to warm (37°C) InVitroGRO HI Medium in a 5:95 (v:v) ratio. […] The plates were removed from the incubator and the hepatocytes were prepared for the induction assay by replacing the cell culture medium with medium containing either the test article, a control inducer, or vehicle control (200 µL per well). The hepatocyte plates were returned to the cell culture incubator and incubated for 24 h.
On Day 3, induction was repeated following the same steps as described above for the previous day, and plates were returned to the cell culture incubator for an additional 24 h.
After aliquots were taken to measure test article stability, all the remaining medium from each well in the hepatocyte plate was removed, all wells were washed once using 200 μL of blank assay buffer, and then 100 μL of the 1000-fold diluted substrate solutions were added to the appropriate wells. The assay plate was returned to the humidified 5% carbon dioxide incubator at 37 °C for 1 h incubation.
At the end of the incubation time, 100 μL of mRNA lysis buffer was added to each well to stop the reaction. Fifty microliters of this reaction mixture were transferred into a new plate and quenched with 200 μL of ice-cold acetonitrile containing a CYP-specific stable labeled internal standard (250 ng/mL acetaminophen-d4, 250 ng/mL hydroxybupropion-d6, or 250 ng/mL hydroxytestosterone-d3). After removal of the aliquots from the plate for enzyme activity determination, the assay plates were sealed and stored in a −70 °C freezer until use for RT-PCR, mRNA analysis.
For the induction assay samples, an aliquot (50 µL) of the supernatant was transferred to a new plate and diluted with 100 µL Milli-Q water. For the test article stability samples, an aliquot (50 µL) of the supernatant was transferred to a new plate and diluted with 60 µL 0.1% formic acid in Milli-Q water. These samples for the enzyme activity assay and article stability test were refrigerated for storage until analysis. […]
HM1010: Induction Potential of Cytochrome P450 Enzymes
(CYP1A2, CYP2B6 and CYP3A4) Using Human Cryopreserved Hepatocytes
Testing Facility Study No.
The purpose of this in-vitro study was to determine the induction potential of HM1010 on human
cytochrome P450 (CYP) isoenzyme (1A2, 2B6 and 3A4) activity. The study design is
Matrix: Inducible cryopreserved human hepatocytes three single-donor lots
Assay Buffer: InVitroGRO KHB
Substrates: Phenacetin (1A2), Bu propion (2B6), and Testosterone (3A4)
Assay conditions: 48 hours at 37°C in humidified 5% carbon dioxide incubator
Analysis: LC-MS/MS (enzyme activity) and mRNA analysis

CYP1A2 = biological target: T1, CYP1A2 (Homo sapiens, UniProt P05177); conditions: microsomes
T1 sequence (P05177 1-516): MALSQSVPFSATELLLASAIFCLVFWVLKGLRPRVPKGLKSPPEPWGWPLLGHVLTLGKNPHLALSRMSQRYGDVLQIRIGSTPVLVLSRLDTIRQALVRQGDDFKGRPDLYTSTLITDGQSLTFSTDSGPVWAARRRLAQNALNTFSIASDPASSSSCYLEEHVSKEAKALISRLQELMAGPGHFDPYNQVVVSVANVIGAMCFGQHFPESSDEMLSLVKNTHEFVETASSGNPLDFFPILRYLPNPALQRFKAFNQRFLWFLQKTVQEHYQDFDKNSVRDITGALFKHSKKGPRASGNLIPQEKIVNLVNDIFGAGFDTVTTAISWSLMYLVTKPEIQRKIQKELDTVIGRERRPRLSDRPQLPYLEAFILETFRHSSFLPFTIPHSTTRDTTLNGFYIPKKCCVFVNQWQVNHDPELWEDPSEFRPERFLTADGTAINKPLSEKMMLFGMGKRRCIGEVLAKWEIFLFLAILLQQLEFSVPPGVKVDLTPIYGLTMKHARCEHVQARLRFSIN

CYP2C9 = CYP2C9 (Homo sapiens, UniProt P11712); conditions: microsomes
CYP2C19 = CYP2C19 (Homo sapiens, UniProt P33261); conditions: microsomes
CYP2D6 = CYP2D6 (Homo sapiens, UniProt P10635); conditions: microsomes
in vitro [4] = conditions: beagle, dog, plasma, pH 7.4
Protocol: Samples were tested at 2 μM.
(§1) The supernatant was removed and incubated at 37 °C for at least 10 min before use. The pH of each matrix was checked and adjusted to pH 7.4 using 10% phosphoric acid or 1 N sodium hydroxide as necessary.
(§2) Test and control article stock solutions were spiked (1.5 µL) into matrix (0.749 mL) to a final assay concentration of 2 µM and mixed. […] These tubes were sealed and incubated at 37 °C with shaking.
(§3) The quenched samples were mixed briefly by vortexing and stored in a −20 °C freezer.
(§4) Sample plates were stored refrigerated until analysis.
(§5) The column was set to a temperature of 55 °C. […] The instrument was equipped with an electrospray ionization source (500 °C) operated in positive-ion mode.
(§6) Peak area ratios for IS-normalized test article and control article counts were used to calculate the percent remaining relative to the time zero (T0) value. As appropriate, results were plotted and further analyzed to calculate half-life (T1/2) values.
(§7) Mean peak ratios were used to calculate the percent remaining relative to the T0 value: % Remaining at Timex = (mean peak area ratio Tx/mean peak ratio T0) × 100.

in vitro [5] = conditions: CD-1, mouse, plasma, pH 7.4
Protocol: Samples were tested at 2 μM.
as §1, §2, §3, §4, §5, §6, §7

[6] = read-out: CLint (L/hr/kg) (converted)

Sequence of CYP2D6 (P10635 whole entry): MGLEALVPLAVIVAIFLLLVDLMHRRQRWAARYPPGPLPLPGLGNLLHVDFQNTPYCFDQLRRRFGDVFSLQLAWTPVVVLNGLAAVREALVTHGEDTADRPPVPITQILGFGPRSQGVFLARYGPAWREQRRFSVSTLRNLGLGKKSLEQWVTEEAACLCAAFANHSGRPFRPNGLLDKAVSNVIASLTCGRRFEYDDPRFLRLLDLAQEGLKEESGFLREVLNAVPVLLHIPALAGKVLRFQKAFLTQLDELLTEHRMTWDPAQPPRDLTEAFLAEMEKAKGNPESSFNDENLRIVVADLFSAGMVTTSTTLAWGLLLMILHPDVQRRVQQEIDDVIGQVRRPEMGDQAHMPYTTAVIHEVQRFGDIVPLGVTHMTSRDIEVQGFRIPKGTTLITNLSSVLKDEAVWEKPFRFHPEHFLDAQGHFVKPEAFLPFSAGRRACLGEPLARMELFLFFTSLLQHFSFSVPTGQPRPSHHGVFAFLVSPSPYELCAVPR
Sequence of CYP2C9 (P11712 whole entry): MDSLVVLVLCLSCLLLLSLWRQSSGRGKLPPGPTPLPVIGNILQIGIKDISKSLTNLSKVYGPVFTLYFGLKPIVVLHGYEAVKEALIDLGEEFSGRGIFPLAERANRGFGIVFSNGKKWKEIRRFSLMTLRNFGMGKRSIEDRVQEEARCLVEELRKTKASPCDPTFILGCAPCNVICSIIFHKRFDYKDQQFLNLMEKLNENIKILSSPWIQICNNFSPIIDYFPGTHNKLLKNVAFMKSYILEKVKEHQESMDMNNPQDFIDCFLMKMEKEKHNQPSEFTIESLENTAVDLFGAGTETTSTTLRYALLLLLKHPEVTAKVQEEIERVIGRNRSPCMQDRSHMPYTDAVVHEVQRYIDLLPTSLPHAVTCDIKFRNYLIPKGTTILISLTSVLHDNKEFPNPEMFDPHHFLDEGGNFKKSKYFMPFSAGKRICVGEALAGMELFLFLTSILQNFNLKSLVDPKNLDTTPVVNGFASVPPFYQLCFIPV
Sequence of CYP2C19 (P33261 whole entry): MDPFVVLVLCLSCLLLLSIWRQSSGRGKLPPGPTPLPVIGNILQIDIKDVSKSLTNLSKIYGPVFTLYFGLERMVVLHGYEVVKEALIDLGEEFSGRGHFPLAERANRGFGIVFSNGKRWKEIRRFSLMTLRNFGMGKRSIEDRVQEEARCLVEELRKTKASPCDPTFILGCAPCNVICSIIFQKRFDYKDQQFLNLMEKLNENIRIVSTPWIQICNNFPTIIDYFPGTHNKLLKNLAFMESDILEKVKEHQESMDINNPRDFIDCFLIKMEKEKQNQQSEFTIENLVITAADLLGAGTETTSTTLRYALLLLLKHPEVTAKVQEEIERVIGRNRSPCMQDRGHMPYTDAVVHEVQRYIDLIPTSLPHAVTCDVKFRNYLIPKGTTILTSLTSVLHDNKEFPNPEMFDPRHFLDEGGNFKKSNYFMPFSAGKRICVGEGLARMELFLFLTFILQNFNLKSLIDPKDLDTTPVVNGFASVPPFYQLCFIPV

LRKLRKRLLRLVGRQLEEFL [HM-10/10, LRKLRKRLLRLVGRQLEEFL]
half-life at 2 µM ([1]; pooled liver microsomes, pH 7.4, Sprague-Dawley rat liver microsomes 0.5 mg protein/mL): 27.7 min | remaining at 2 h, 2 µM ([1]; pooled liver microsomes, pH 7.4, Sprague-Dawley rat liver microsomes 0.5 mg protein/mL, read-out: % Remaining at 120 min): 3.7% | CLint scaled [1, 6]: 6.09 L/h/kg | CLint scaled ([1]; read-out: CLint (mL/min/kg)): 6.06 L/h/kg | CLint scaled [2, 6]: 2.83 L/h/kg | CLint scaled ([2]; read-out: CLint (mL/min/kg)): 2.83 L/h/kg | half-life at 2 µM ([2]; pooled liver microsomes, pH 7.4, Beagle dog liver microsomes 0.5 mg protein/mL): 33 min | remaining at 2 h, 2 µM ([2]; pooled liver microsomes, pH 7.4, Beagle dog liver microsomes 0.5 mg protein/mL, read-out: % Remaining at 120 min): 1.5% | CLint scaled ([3]; Human liver microsomes 0.5 mg protein/mL, 2 μM): 61.5 mL/min/kg | half-life at 2 µM ([3]; pooled liver microsomes, pH 7.4, Human liver microsomes 0.5 mg protein/mL): 20.3 min | remaining at 2 h, 2 µM ([3]; pooled liver microsomes, pH 7.4, Human liver microsomes 0.5 mg protein/mL, read-out: % Remaining at 120 min): 1.4% | Fold Increase (Enzyme Activity) Lot HH1086 (CYP2B6; 2 µM): 3.18 fold | Fold Increase (Enzyme Activity) Lot HH1142 (CYP2B6; 2 µM): 2.82 fold | Fold Increase (Enzyme Activity) Lot HH1144 (CYP2B6; 2 µM): 3.00 fold | Fold Increase (Enzyme Activity) Mean (CYP2B6; 2 µM): 3.00 fold | Fold Increase (Enzyme Activity) Lot HH1086 (CYP2B6; 10 µM): 4.01 fold | Fold Increase (Enzyme Activity) Lot HH1142 (CYP2B6; 10 µM): 6.36 fold | Fold Increase (Enzyme Activity) Lot HH1144 (CYP2B6; 10 µM): 4.52 fold | Fold Increase (Enzyme Activity) Mean (CYP2B6; 10 µM): 4.96 fold | Fold Increase (Enzyme Activity) Lot HH1086 (CYP2B6; 25 µM): 2.80 fold | Fold Increase (Enzyme Activity) Lot HH1142 (CYP2B6; 25 µM): 9.29 fold | Fold Increase (Enzyme Activity) Lot HH1144 (CYP2B6; 25 µM): 6.73 fold | Fold Increase (Enzyme Activity) Mean (CYP2B6; 25 µM): 6.27 fold | % Inhibition at 50 µM No PI + NADPH (CYP1A2): −18.0% | % Inhibition at 50 µM No PI − NADPH (CYP1A2): −20.7% | % Inhibition at 50 µM PI + NADPH (CYP1A2): 0.1% | % Inhibition at 50 µM PI − NADPH (CYP1A2): −15.8% | % Inhibition at 50 µM No PI + NADPH (CYP2C9): 8.6% | % Inhibition at 50 µM No PI − NADPH (CYP2C9): 0.4% | % Inhibition at 50 µM PI + NADPH (CYP2C9): 1.7% | % Inhibition at 50 µM PI − NADPH (CYP2C9): 0.5% | % Inhibition at 50 µM No PI + NADPH (CYP2C19): −26.4% | % Inhibition at 50 µM No PI − NADPH (CYP2C19): −9.4% | % Inhibition at 50 µM PI + NADPH (CYP2C19): −6.0% | % Inhibition at 50 µM PI − NADPH (CYP2C19): 19.9% | % Inhibition at 50 µM No PI + NADPH (CYP2D6): 6.0% | % Inhibition at 50 µM No PI − NADPH (CYP2D6): 17.2% | % Inhibition at 50 µM PI + NADPH (CYP2D6): 17.0% | % Inhibition at 50 µM PI − NADPH (CYP2D6): 19.7% | half-life at 2 µM (in vitro [4]): 54.6 min | remaining at 2 h, 2 µM (in vitro [4]): 24.8% | half-life at 2 µM (in vitro [5]): 5.68 min | remaining at 2 h, 2 µM (in vitro [5]): 23.9%
